Experimental data published in US12319967B2, “Methods and compositions for diagnosing and treating prostate cancer based on long noncoding RNA overlapping the LCK gene that regulates prostate cancer cell growth” (University of Virginia Patent Foundation, priority 2019, dated 2025).

Tested on: LNCaP, C4-2, and Rv1 cells
Assay: CyQuant growth assay 7 days after viral transduction
Type: cell-based, human
Settings: 0.05 nM R1881; LNCaP, C4-2, and Rv1 cells; day 7
From the text: FIG. 5A illustrates the gene structure of LCK and location of each shRNA targeting LCK. MISSION shRNAs targeting human LCK (NM_005356) and the pLKO vector control were purchased from ThermoFisher. Each shRNA was validated for efficiency of LCK or HULLK knockdown in Jurkat and PCa cells by qPCR. (C) The results of CyQuant Assay measuring DNA content as a surrogate for cell number 7 days after shRNA transduction is shown in FIG. 5C. Growth was compared to untreated empty vector control and the values were averaged across biological replicates. Error bars represent standard error of the mean. The relative effect of four independent shRNAs on cell growth in LNCaP, C42, and Rv1 cells in the absence or presence of 0.05 nM R1881, n=3. FIG. 5D plots the data for the relative effect of HULLK overexpression on cell growth in LNCaP, C42, and Rv1 cells in the absence or presence of 0.05 nM R1881, n=3. Statistical analysis was performed using ANOVA and Tukey test.
CyQuant Growth Assays: Assay was performed as previously described (18). Briefly, shRNA or pLKO control virus was added to 1 μg/ml fibronectin-coated 96 well plates. Cells were plated in RPMI-1640 plus 5% CSS with vehicle, 0-0.05 nM R1881, and/or 10 μM Enzalutamide (Selleck Chemicals). Quantification was performed on Day 7 using a BioTek Synergy 2 plate reader.
To explore the functional role of HULLK in PCa, the effects of HULLK knockdown on PCa cell growth was examined. LNCaP, C4-2, and Rv1 cells were transduced with lentiviral particles expressing four independent shRNAs specific for LCK or pLKO empty vector control in the presence or absence of 0.05 nM R1881. Two shRNAs were targeting the carboxy-terminal of LCK (shLCK-3 and shLCK-4) and should decrease HULLK levels; and two shRNAs were directed toward the amino-terminal (shLCK-1 and shLCK-2) and should not affect HULLK expression (FIG. 5A). […] As a control, all four shRNAs efficiently knocked LCK down 60-90% in Jurkat cells. Seven days following viral transduction, cellular growth was measured using CyQuant, which uses DNA content as a surrogate for cell number. In the absence of hormone, the four shRNAs had no dramatic effects on growth in LNCaP or C4-2 cells (FIG. 5C).
The complement experiment of evaluating the effects of overexpressing HULLK on cell growth was also performed. LNCaP, C4-2, and Rv1 cells were transduced with lentivirus expressing either vector or HULLK constructs in the presence or absence of 0.05 nM R1881, and proliferation was calculated seven days following viral transduction.

C[C@]1(O)CC[C@H]2[C@@H]3CCC4=CC(=O)CCC4=C3C=C[C@@]21C [R1881]
cell growth of vector-expressing control cells exposed to R1881: expected increase in cell growth
